Measurements as given in PubChem BioAssay AID328 (DTP/NCI, 2004).
Where “and” joins values, the source holds several entries; their conditions need not be identical. Equal entries are not always repeated. Inconclusive results and toxic doses are left out. The calls were made as follows: active = survival T/C of 150% or more; inactive = T/C below 125% in these data.

Test system: BDF1 mice, P388 leukemia ip, median survival T/C
Assay: NCI In Vivo Anticancer Drug Screen. Data for tumor model P388 Leukemia (intraperitoneal) in B6D2F1 (BDF1) mice
Settings: endpoint: median survival time, higher = longer survival
In short: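 T/C = treated-group survival ÷ vehicle-control survival; tumour transplanted into mice before dosing.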

[1] = dose: 50.0 mg/kg/injection, schedule: Q01DX009 (ip), vehicle: saline
[2] = dose: 50.0 mg/kg/injection, schedule: Q04DX003 (ip), vehicle: saline
[3] = dose: 100.0 mg/kg/injection, schedule: Q01DX009 (ip), vehicle: saline
[4] = dose: 100.0 mg/kg/injection, schedule: Q04DX003 (ip), vehicle: saline
[5] = dose: 200.0 mg/kg/injection, schedule: Q01DX009 (ip), vehicle: saline
[6] = dose: 200.0 mg/kg/injection, schedule: Q04DX003 (ip), vehicle: saline
[7] = dose: 400.0 mg/kg/injection, schedule: Q04DX003 (ip), vehicle: saline
[8] = dose: 25.0 mg/kg/injection, schedule: Q01DX009 (ip), vehicle: saline with Tween-80
[9] = dose: 50.0 mg/kg/injection, schedule: Q01DX009 (ip), vehicle: saline with Tween-80
[10] = dose: 100.0 mg/kg/injection, schedule: Q01DX009 (ip), vehicle: saline with Tween-80
[11] = dose: 200.0 mg/kg/injection, schedule: Q01DX009 (ip), vehicle: saline with Tween-80
[12] = dose: 400.0 mg/kg/injection, schedule: Q01DX009 (ip), vehicle: saline with Tween-80
[13] = dose: 100.0 mg/kg/injection, schedule: Q04DX003 (ip), vehicle: saline with Tween-80
[14] = dose: 6.25 mg/kg/injection, schedule: Q01DX009 (ip), vehicle: saline with Tween-80
[15] = dose: 12.5 mg/kg/injection, schedule: Q01DX009 (ip), vehicle: saline with Tween-80

Measured: T/C

CC1CC(=O)C(O)C2(C)C1CC1OC(=O)C(OC(=O)c3ccccc3)C3C(C)C(O)C4(O)OCC13C42 (stereo not drawn)
inactive: dose: 0.12 mg/kg/injection, schedule: Q01DX009 (ip), vehicle: saline with Tween-80 110 % of control | dose: 0.25 mg/kg/injection, schedule: Q01DX009 (ip), vehicle: saline with Tween-80 121 % of control | dose: 1.0 mg/kg/injection, schedule: Q01DX009 (ip), vehicle: saline with Tween-80 118 % of control | dose: 2.0 mg/kg/injection, schedule: Q01DX009 (ip), vehicle: saline with Tween-80 121 % of control | dose: 4.0 mg/kg/injection, schedule: Q01DX009 (ip), vehicle: saline with Tween-80 112 % of control | dose: 8.0 mg/kg/injection, schedule: Q01DX009 (ip), vehicle: saline with Tween-80 116 % of control | dose: 16.0 mg/kg/injection, schedule: Q01DX009 (ip), vehicle: saline with Tween-80 118 % of control

CC1(C)O[Se](=O)OC1(C)C
inactive: dose: 6.25 mg/kg/injection, schedule: Q04DX003 (ip), vehicle: saline 100 % of control

Cc1cc(NC(=O)NCc2ccc(N)cc2)ccc1S(=O)(=O)F
inactive: dose: 25.0 mg/kg/injection, schedule: Q01DX009 (ip), vehicle: saline 97 % of control | [1] 109 % of control | [2] 102 % of control | dose: 75.0 mg/kg/injection, schedule: Q01DX009 (ip), vehicle: saline 115 % of control | [3] 90 % of control and 124 % of control | [4] 102 % of control | dose: 150.0 mg/kg/injection, schedule: Q01DX009 (ip), vehicle: saline 92 % of control | [5] 106 % of control | [6] 100 % of control | dose: 400.0 mg/kg/injection, schedule: Q01DX009 (ip), vehicle: saline 99 % of control | [7] 97 % of control

O=c1nc[nH]c(=O)[nH]1
inactive: [8] 97 % of control | [9] 99 % of control | [10] 97 % of control | [11] 104 % of control

CCSC(=O)N1c2ccc(OC)cc2C=CC1C#N (stereo not drawn)
active: [10] 164 % of control | [11] 180 % of control | [12] 190 % of control | dose: 600.0 mg/kg/injection, schedule: Q04DX003 (ip), vehicle: saline with Tween-80 150 % of control

O=C(NC1=NN(c2ccccc2)C(=O)C1)C(Cl)c1ccccc1 (stereo not drawn)
inactive: [9] 104 % of control | [10] 95 % of control | [11] 95 % of control

COc1cc(NS(C)(=O)=O)ccc1Nc1c2ccccc2nc2c(C)cccc12
active: dose: 2.5 mg/kg/injection, schedule: Q01DX009 (ip), vehicle: Klucel (hydroxypropylcellulose) (HPC) 201 % of control | dose: 17.0 mg/kg/injection, schedule: Q04DX003 (ip), vehicle: gum acacia 250 % of control | dose: 25.0 mg/kg/injection, schedule: Q04DX003 (ip), vehicle: gum acacia 250 % of control
inactive: dose: 1.25 mg/kg/injection, schedule: Q01DX009 (ip), vehicle: Klucel (hydroxypropylcellulose) (HPC) 107 % of control

CCC(=O)O[C@H]1CC[C@H]2[C@@H]3CCC4=CC(=O)C[C@]4(C)[C@H]3CC[C@]12C
inactive: [9] 100 % of control | [10] 100 % of control | [13] 110 % of control | [11] 113 % of control | dose: 200.0 mg/kg/injection, schedule: Q04DX003 (ip), vehicle: saline with Tween-80 105 % of control

CCCCOCN1COCC1(C)C
inactive: [2] 100 % of control | [4] 105 % of control

CC(C)NCC(O)COc1ccc2ncsc2c1 (stereo not drawn)
inactive: [1] 108 % of control | [3] 110 % of control | [5] 91 % of control

OC1CCC2(CC1)Cc1ccccc1C2O (stereo not drawn)
inactive: dose: 100.0 mg/kg/injection, schedule: Q01DX001 (ip), vehicle: saline with Tween-80 114 % of control | dose: 200.0 mg/kg/injection, schedule: Q01DX001 (ip), vehicle: saline with Tween-80 119 % of control | dose: 400.0 mg/kg/injection, schedule: Q01DX001 (ip), vehicle: saline with Tween-80 119 % of control

Nc1ncnc2oc(-c3ccccc3)c(-c3ccccc3)c12
inactive: [14] 100 % of control | [15] 100 % of control | [8] 97 % of control | [9] 92 % of control

O=C(/C=C/c1cccc([N+](=O)[O-])c1)NCCBr
inactive: [4] 90 % of control | [6] 100 % of control | [7] 100 % of control

N#CCCNCCC#N
inactive: [1] 91 % of control | [3] 108 % of control | [4] 105 % of control | [5] 104 % of control | [6] 105 % of control

O=[N+]([O-])c1cc(-c2nc3ccccc3[nH]2)cc([N+](=O)[O-])c1
inactive: [9] 110 % of control | [10] 91 % of control

Cc1ccn(/C(N)=N/C(=S)Nc2ccccc2)n1
inactive: dose: 37.5 mg/kg/injection, schedule: Q01DX009 (ip), vehicle: saline with Tween-80 108 % of control | dose: 75.0 mg/kg/injection, schedule: Q01DX009 (ip), vehicle: saline with Tween-80 90 % of control | dose: 150.0 mg/kg/injection, schedule: Q01DX009 (ip), vehicle: saline with Tween-80 114 % of control

CC(=O)N1CCCC1=O
inactive: dose: 100.0 mg/kg/injection, schedule: Q01DX009 (ip), vehicle: Klucel (hydroxypropylcellulose) (HPC) 95 % of control | dose: 100.0 mg/kg/injection, schedule: Q04DX003 (ip), vehicle: Klucel (hydroxypropylcellulose) (HPC) 100 % of control | dose: 200.0 mg/kg/injection, schedule: Q01DX009 (ip), vehicle: Klucel (hydroxypropylcellulose) (HPC) 86 % of control | dose: 200.0 mg/kg/injection, schedule: Q04DX003 (ip), vehicle: Klucel (hydroxypropylcellulose) (HPC) 100 % of control | dose: 400.0 mg/kg/injection, schedule: Q04DX003 (ip), vehicle: Klucel (hydroxypropylcellulose) (HPC) 100 % of control

CCC1CC(O)c2c(O)c3c(c(O)c2C1O)C(=O)c1cccc(O)c1C3=O (stereo not drawn) (tested in a mixture with another compound)
inactive: dose: 0.5 mg/kg/injection, schedule: Q01DX001 (ip), vehicle: saline 100 % of control | dose: 1.0 mg/kg/injection, schedule: Q01DX001 (ip), vehicle: saline 109 % of control | dose: 2.0 mg/kg/injection, schedule: Q01DX001 (ip), vehicle: saline 109 % of control

COc1ccccc1C(c1ccccc1OC)N(C)C(C)(C)CO
inactive: [14] 100 % of control | [15] 91 % of control | [8] 91 % of control

CCOC(=O)CC(=O)c1ccc(C)cc1
inactive: [10] 90 % of control | [11] 90 % of control

O=C(Nc1ccc(C2=NCCN2)cc1)c1ccc(C(=O)Nc2ccc(C3=NCCN3)cc2)c([N+](=O)[O-])c1
active: dose: 6.0 mg/kg/injection, schedule: Q01DX010 (ip), vehicle: saline 163 % of control | dose: 8.0 mg/kg/injection, schedule: Q01DX010 (ip), vehicle: saline 168 % of control
inactive: dose: 12.0 mg/kg/injection, schedule: Q01DX010 (ip), vehicle: saline 113 % of control

N#CC(C(N)=O)c1ccccc1 (stereo not drawn)
inactive: dose: 25.0 mg/kg/injection, schedule: Q04DX003 (ip), vehicle: saline with Tween-80 102 % of control | dose: 50.0 mg/kg/injection, schedule: Q04DX003 (ip), vehicle: saline with Tween-80 108 % of control | [13] 97 % of control

c1ccc2cc3c(cc2c1)Cn1c-3nc2ccccc21
inactive: [10] 100 % of control | [11] 100 % of control | [12] 95 % of control

O/C(=C/C(=S)S)c1ccco1
inactive: dose: 25.0 mg/kg/injection, schedule: Q01DX009 (ip), vehicle: water 93 % of control | dose: 25.0 mg/kg/injection, schedule: Q04DX003 (ip), vehicle: water 94 % of control | dose: 50.0 mg/kg/injection, schedule: Q01DX009 (ip), vehicle: water 91 % of control | dose: 50.0 mg/kg/injection, schedule: Q04DX003 (ip), vehicle: water 93 % of control | dose: 100.0 mg/kg/injection, schedule: Q01DX009 (ip), vehicle: water 92 % of control | dose: 200.0 mg/kg/injection, schedule: Q01DX009 (ip), vehicle: water 102 % of control | dose: 200.0 mg/kg/injection, schedule: Q04DX003 (ip), vehicle: water 93 % of control | dose: 400.0 mg/kg/injection, schedule: Q01DX009 (ip), vehicle: water 93 % of control | dose: 400.0 mg/kg/injection, schedule: Q04DX003 (ip), vehicle: water 97 % of control

CCCCN(CCCC)CCOC(=O)c1ccc([N+](=O)[O-])cc1
inactive: dose: 50.0 mg/kg/injection, schedule: Q01DX001 (ip), vehicle: saline 100 % of control | dose: 100.0 mg/kg/injection, schedule: Q01DX001 (ip), vehicle: saline 100 % of control | dose: 200.0 mg/kg/injection, schedule: Q01DX001 (ip), vehicle: saline 100 % of control
